Patent US20240067931A1, “METHODS AND COMPOSITIONS FOR SMALL MOLECULE BASED PANCREATIC BETA CELL INDUCTION” (Trailhead Biosystems Inc., priority 2022, published 2024)
“Also recorded” adds a separate entry of the source. Peptide text beside a SMILES is read from it.

B1: Cardiotropin: factor tested in HD-DoE for INS induction (protein, UniProt Q16619 1-201, looked up)
Cardiotrophin-1: MSRREGSLEDPQTDSSVSLLPHLEAKIRQTHSLAHLLTKYAEQLLQEYVQLQGDPFGLPSFSPPRLPVAGLSAPAPSHAGLPVHERLRLDAAALAALPPLLDAVCRRQAELNPRAPRLLRRLEDAARQARALGAAVEALLAALGAANRGPRAEPPAATASAASATGVFPAKVLGLRVCGLYREWLSRTEGDLGQLLPGGSA

Experiments:
Type in all cases: cell-based, human
[1] = system: PDX1; experiment: HD-DoE perturbation matrix on DFE culture, modelling for maximal PDX1 induction; conditions: DFE culture, HD-DoE, FIG. 11
Text: FIG. 11 Modelling for maximal PDX1 induction. Cultures of the iPSC cell line Cr01 was differentiated to a DFE state and then subjected to an HD-DoE perturbation matrix composed of the compounds indicated in the figure. MODDE software was used to predict the optimal condition for maximizing PDX1 activation. Predicted factor additives for this optimization and the relative expression under these conditions for the genes measured are shown.
FIG. 12 Coefficient plots show main effectors for pancreatic progenitor generation from a DFE precursor. Coefficients for the HD-DoE design shown in Example 9 are shown for PDX1 and PTF1A. The co-expression of these two genes is indicative of a pancreatic field.
To determine the best way for inducing a pancreatic fate from a DFE progenitor, a subsequent HD-DoE analysis was performed. Exposing a DFE culture to a perturbation matrix composed of all previously identified effectors shown to have a positive effect on PDX1 activation was used to define optimal conditions for PDX1 induction.

[2] = system: GCG, SST, PDX1, PAX4, MAFA and NKX2.2; experiment: HD-DoE stage 3 screening, heat map and dynamic profiling of endocrine and beta cell genes; conditions: for effect on beta cell specific transcription factors / all genes optimized: heat maps FIG. 19 and FIG. 21; for effect on beta cell state / endocrine fate: heat map FIG. 21, dynamic profiling FIGS. 22-25
Text: (§1) FIG. 19 Heat map showing descending factor contributions for the induction of INS. The three HD-DoE experiments shown in Example 17 were used for modeling the maximal expression of several other genes, including GCG, SST, PDX1, PAX4, MAFA and NKX2.2, which are indicative of endocrine cell types with a focus on pancreatic beta cells as indicated at the top of the heat map. The relative factor contributions for the activation of these different genes were then used to generate a secondary heat map representative of the gene induction logic and then ranked according to the compound's ability to induce INS. Dark blue colors indicate a high inductive capacity, while dark red colors indicative of a highly repressive capacity for activation of the genes are shown.
(§2) FIG. 21 Heat map showing descending factor contributions for the induction of INS. The four HD-DoE experiments shown in Example 19 were used for modeling the maximal expression of several other genes. These genes were GCG, SST, PDX1, PAX4, MAFA and NKX2.2. These genes are all indicative of endocrine cell types with a focus on the beta cell as indicated at the top of the heatmap. The relative factor contribution for the activation of these different genes were then used to generate a secondary heat map representative of these genes induction logic and then ranked order according to the compounds ability to induce INS. Dark blue indicates high inductive capacity, while dark red is indicative of a highly repressive effect for the activation of the genes shown.
(§3) FIGS. 22-25. Dynamic profiling of endocrine sub-type regulation. One of the HD-DoE experiments shown in Example 19 was analyzed using MODDE software and dynamic profiling of the endocrine products GCG, SST and INS are shown.
To ascertain which factors could potentially favor the beta cell over other endocrine cell types, optimizers for markers of the other endocrine cell types and beta cell specific markers were compared. The relative factor contribution from the different optimizers were compared.
Optimizers for the main pancreatic endocrine hormones and beta cell-specific transcription factors were generated to compare their contribution factors for this series of HD-DoE. Compounds that could selectively favor the differentiation of the beta cell over that of the alpha and delta cells were identified in this manner.

[3] = system: INS; experiment: HD-DoE screening for optimal de novo beta cell induction (stage 3 cultures, 3 day perturbation), INS induction; conditions: for factor contribution, induction of INS: Example 19, four HD-DoE panels, FIG. 20; for effect on INS induction: heat map FIG. 21, dynamic profiling FIGS. 22-25
Method: FIG. 18 HD-DoE screening for optimal de novo beta cell induction. Culture of the iPSC cell line CR01 were differentiated to a DFE state for 3 days. These cultures were then incubated in the presence of stage 2 media for an additional 3 days. These cultures were then incubated for an additional 5 days in the presence of GSI-XX and A8301 followed by a 3 day incubation in the presence of a perturbation matrix composed of the compounds indicated in the different panels. This was performed 3 separate times (once for each of the 3 panels). These HD-DoE experiments were then analyzed using MODDE software for maximal induction of insulin. The predicted results are shown.
FIG. 20 HD-DoE screening for optimal de novo beta cell induction. Cultures of the iPSC cell line CR01 were differentiated to a DFE state for 3 days. These cultures were then incubated in the presence of stage 2 media for an additional 3 days. These cultures were then incubated for an additional 5 days in the presence of GSI-XX and A8301 followed by a 3 day incubation in the presence of a perturbation matrix composed of the compounds indicated in the different panels. This was performed 4 separate times (once for each of the 4 panels). These HD-DoE experiments were then analyzed using MODDE software for the maximal induction of Insulin. The predicted results are shown.
as §3
To define factors contributing to the activation of INS, a series of HD-DoE perturbations were performed using factors chosen to target different aspects of beta cell biology.
To define factors contributing to the activation of INS, a series HD-DoE perturbations were performed using factors chosen to target different aspects of beta cell biology.

[4] = system: GCG (alpha cell marker); experiment: HD-DoE stage 3 screening, heat map and dynamic profiling: GCG; conditions: heat map FIG. 21, dynamic profiling FIGS. 22-25
Text: as §1, §2, §3

[5] = system: SST (delta cell marker); experiment: HD-DoE stage 3 screening, heat map and dynamic profiling: SST; conditions: heat map FIG. 21, dynamic profiling FIGS. 22-25
Text: as §1, §2, §3

Row | Molecule | factor contribution, induction of INS [3] | effect on INS induction [3] | effect on GCG induction / alpha cell fate [4] | effect on SST induction / delta cell fate [5] | further results
1 | COc1cc(O)c2c(c1)/C=C/C[C@H](O)[C@H](O)C(=O)/C=C\C[C@H](C)OC2=O [(5Z)-7-oxozeanol, (5Z)-7-Oxozeaenol] | – | – | – | – | factor contribution, PDX1 activation [1]: 8.2
2 | Clc1ccc(C2(c3ccc(-c4cn[nH]c4)cc3)CCNCC2)cc1 [AT7867] | – | – | – | – | factor contribution, PDX1 activation [1]: 15.5
3 | CC(C)Cn1c(=O)n(C)c(=O)c2[nH]cnc21 [IBMX] | – | – | – | – | effect on beta cell specific transcription factors / all genes optimized [2]: beneficial for all genes optimized
4 | Nc1nc(OC(c2ccc(-c3cccc(F)c3)cc2)C(F)(F)F)cc(-c2ccc(C[C@H](N)C(=O)O)cc2)n1 (stereo partly drawn) [LP533401] | 10.7 | contributed to the induction of INS | – | – | –
5 | Nc1nc(Nc2ccc3c(c2)CC[C@@H](N2CCCC2)CC3)nn1-c1cc2c(nn1)-c1ccccc1CCC2 [R248] | 22.9 | – | – | – | effect on beta cell state / endocrine fate [2]: strongest inducers of the beta cell state
6 | Cc1nn(-c2ccccc2)c(C)c1/C=N/N1CCN(Cc2ccccc2)CC1 [SANT1] | 15.0 | stronger for INS induction | increased induction | increased induction | factor contribution, PDX1 activation [1]: 5.0; effect on beta cell state / endocrine fate [2]: increased induction of endocrine fates without total specificity towards the beta cell
7 | CC(C)n1nc(C#Cc2ccccc2)c2c(N)ncnc21 [SPP86] | 4.8 | positive effect on INS induction, though with far less contribution | – | – | –
8 | C/C(=C\c1ccc(C(=O)O)cc1)c1ccc2c(c1)C(C)(C)CCC2(C)C [TTNPB] | 12.7 | – | strongly inhibiting; also recorded: inhibitory | strongly inhibiting; also recorded: inhibitory | effect on beta cell state / endocrine fate [2]: strongest inducers of the beta cell state; effect on beta cell specific transcription factors / all genes optimized [2]: strongly activate all beta cell specific transcription factors
9 | Clc1cccc(Cl)c1N=C1NCCN1 [clonidine] | – | contributed to the induction of INS | – | – | contribution factor, activation of INS ([3]; Example 17, three HD-DoE panels, FIG. 18): 23.4
10 | CC1=NS(=O)(=O)c2cc(Cl)ccc2N1 [diazoxide] | – | positively increased INS induction, though not significantly | – | – | –
11 | C[C@H](N)C(=O)N[C@@H](CCC(N)=O)C(=O)O [glutamax] (H-Ala-Gln-OH) | – | stronger for INS induction | increased induction | increased induction | effect on beta cell state / endocrine fate [2]: preferentially favoring the beta cell fate, though to a lesser level; also recorded: positive inducer of endocrine fate; also recorded: increased induction of endocrine fates without total specificity towards the beta cell
12 | NC(=O)CC[C@H](N)C(=O)O [glutamine] | 10.4 | – | – | – | –
13 | CCC(=O)O [propionate] | 5.3 | significantly increased INS levels | inhibited | inhibited | effect on beta cell state / endocrine fate [2]: preferentially favoring the beta cell fate, though to a lesser level
14 | CC1=C(/C=C/C(C)=C/C=C/C(C)=C/C(=O)O)C(C)(C)CCC1 [retinoic acid] | – | – | – | – | factor contribution, PDX1 activation [1]: 19.2
15 | CN(CCOc1ccc(CC2SC(=O)NC2=O)cc1)c1ccccn1 (stereo not drawn) [rosiglitazone] | 6.0 | – | – | – | –
16 | NCCc1c[nH]c2ccc(O)cc12 [serotonin] | – | – | strongly activated GCG induction | inhibited SST induction | –
17 | NCCc1c[nH]c2ccccc12 [tryptamine] | 21.2 | strongest INS inducing effects | no effect | no effect | –
18 | FGF19: FGF pathway agonist | – | contributed to overall INS induction, but to a much smaller degree | – | – | –
19 | obestatin | 9.6 | contributed to the induction of INS | – | – | –
20 | B1 | – | positively increased INS induction, though not significantly | – | – | –
